Results: ChEMBL document CHEMBL3886921, “Substituted pyrazoles as N-type calcium channel blockers” (2016)

Target: Voltage-gated calcium channel
Assay: Functional Drug Screening System (FDSS): Calcium mobilization responses to KCl depolarization were evaluated by measuring the intensity of calcium-mediated fluorescent signal in the presence of BD Calcium Assay Dye (BD Biosciences, Franklin Lakes, N.J., U.S.A.), utilizing a Functional Drug Screening System (FDSS) by Hamamatsu Corporation (Bridgewater, N.J. U.S.A.).Twenty-four hr prior to assay, cells were seeded in clear-base poly-D-lysine-coated 384-well plates (BD Biosciences) at a density of 5,000 cells per well in culture medium and grown overnight in 5% CO2 at 37° C. On the day of assay, growth media were removed, and cells were loaded with BD calcium assay dye (BD Biosciences) for 35 min at 37° C. under 5% CO2 and then for 25 min at room temp. Utilizing the FDSS, cells were exposed to representative compounds of Formula (I) at varying concentrations, and intracellular calcium was measured for 5 min prior to the addition of 50 mM KCl for an additional 3 min of measurement.
Format: cell-based

With COc1ccccc1-n1nc(OC2CC(C)(C)C(=O)C(C)(C)C2)cc1-c1ccc(Cl)cc1 the IC50 was 9.7 nM.
